The values below come from patent US6890917B2, “Geldanamycin derivative and method of treating cancer using same” (The United States of America as represented by the …, priority 2001, dated 2005).

The test system of this assay is standard panel of 12 human tumor cell lines (NCI-H23, NCI-H522, MDA-MB-231, MDA-MB-435, SW-620, COLO 205, LOX IMVI, UACC-62, OVCAR-3, OVCAR-5, U251, SF295). Briefly: Hollow fiber assay (HFA) with stable endpoint MTT assay, compound given to mice carrying intraperitoneal and subcutaneous fiber implants. The assay is classed as in vivo. Also noted: Total HFA Score: scale not given here. Particulars: for Total HFA Score / IP Score / SC Score: HFA in mice; for Total HFA Score: IP + SC scores; for IP Score: intraperitoneal fiber implants; for IP Score / SC Score: 2 points per 50% or greater reduction in viable cell mass; for SC Score: subcutaneous fiber implants; for in vivo anti-cancer activity compared with Compound C (in words): intraperitoneal injection, Table 1. As to the method:
Compounds A-C were tested in a hollow fiber assay for in vivo activity. Each compound was tested against a standard panel of 12 human tumor cell lines including NCI-H23, NCI-H522, MDA-MB-231, MDA-MB-435, SW-620, COLO 205, LOX IMVI, UACC-62, OVCAR-3, OVCAR-5, U251 and SF295. The cell lines were cultivated in RPMI-1640 containing 10% FBS and 2 mM glutamine. On the day preceding hollow fiber preparation, the cells were given a supplementation of fresh medium to maintain log phase growth. For fiber preparation, the cells were harvested by standard trypsinization technique and resuspended at the desired cell density. The cell suspensions were flushed into 1 mm polyvinylidene fluoride (PVDF) hollow fibers (MW exclusion of 500,000 Da) and subsequently heat-sealed at 2 cm intervals. The samples generated from these seals were placed into tissue culture medium and incubated at 37° C. in 5% CO2 for 24-48 hours prior to implantation. A total of 3 different tumor cell lines were prepared for each experiment so that each mouse received 3 intraperitoneal implants (1 of each tumor cell line) and 3 subcutaneous implants (1 of each tumor cell line). A total of 4 experiments were conducted on each mouse (3 cell lines/experiment×4 experiments=12 cell lines).
On the day of implantation, samples of each tumor cell line were quantitated for viable cell mass by a stable endpoint MTT assay so that the time 0 cell mass was known. In the MTT assay, the fibers were incubated in 6-well plates (1-6 fibers/well) with 3 mL of pre-warmed (37° C.) complete medium containing MTT (1 mg/mL) (Sigma) for 4 hours at 37° C. in 5% CO2. The MTT solution was aspirated and the fibers were washed with 2 mL of saline containing 2.5% protamine sulfate overnight at 4° C. A second wash was performed with 2 mL of saline containing 2.5% protamine sulfate, and the fibers were maintained at 4° C. for a minimum of 2 hours. The fibers were then removed from the protamine sulfate, individually wiped, placed in a 24-well plate (1 fiber/well), cut in half and dried overnight in a biosafety hood. To extract the formazan, DMSO was added (0.25 mL) to each well and the plates were rotated for 4 hours at room temperature. The extracted samples were transferred to 96-well plates and the OD was determined at 540 nm. From these spectrophotomeric measurements, the cytostatic and cytocidal capacities of the test compound were assessed.
Following implantation of the hollow fibers, mice were treated with one of the compounds, as listed in Tables 1 and 2 starting on day 3 or 4 following fiber implantation and continuing once daily for a total of 4 doses. Each compound was either assessed by intraperitoneal injection (Example 1) or by oral administration (Example 2) at 2 dose levels with 3 mice/dose/experiment. Vehicle controls consisted of 6 mice receiving the compound diluent only. The fibers were collected from the mice on the day following the fourth compound treatment and subjected to the stable endpoint MTT assay. The optical density of each sample was determined spectrophotometrically at 540 nm and the mean of each treatment group was calculated. The percent net cell growth in each treatment group was determined and compared to the percent net cell growth in the vehicle treated controls.
In the context of the following examples, compounds were selected for further testing (e.g., time/dose exposure studies, preliminary pharmacology studies, subcutaneous xenograft efficacy studies) on the basis of several hollow fiber assay criteria, including (1) a reduction in net cell growth of 50% or greater in 10 of the 48 possible test combinations; (2) a reduction in net cell growth of 50% or greater in a minimum of 4 of the 24 distant site combinations (SC score); and/or (3) cell kill of 1 or more cell lines in either implant site (reduction in the viable cell mass below the level present at the start of the experiment). […]

The mark [1] stands for this setting: compound by intraperitoneal injection once daily for 4 days, 2 dose levels (A, B: 75 and 50 mg/kg/dose; C: 20 and 13.4 mg/kg/dose).
The mark [2] stands for this setting: compound orally (PO) once daily for 4 days, 75 and 50 mg/kg/dose.

With `CO[C@H]1/C=C\C=C(/C)C(=O)NC2=CC(=O)C(NCCN(C)C)=C(C[C@@H](C)C[C@H](OC)[C@H](O)[C@@H](C)/C=C(\C)[C@@H]1OC(N)=O)C2=O.Cl` [Compound B, 17-Demethoxy-17-[[2-(dimethylamino)ethyl]amino]geldanamycin hydrochloride], under setting [1], the “Total HFA Score” value stood at 42, the “IP Score” value was 24 and the “SC Score” value was 18. Under setting [2], the “Total HFA Score” value is 20, the “IP Score” value stood at 10 and the “SC Score” value was 10. The “in vivo anti-cancer activity compared with Compound C (in words)” value (HFA) is given as “significantly greater in vivo anti-cancer activity”. For the same compound, the “in vivo anti-cancer activity by oral administration (in words)” value (HFA, oral administration, Table 2) is given as “significant in vivo anti-cancer activity”.
Regarding `CO[C@H]1/C=C\C=C(/C)C(=O)NC2=CC(=O)C(NCCCN(C)C)=C(C[C@@H](C)C[C@H](OC)[C@H](O)[C@@H](C)/C=C(\C)[C@@H]1OC(N)=O)C2=O` [Compound C, 17-Dimethylaminopropylamino-17-demethoxygeldanamycin, reference compound], under setting [1], the “Total HFA Score” value is 16, the “IP Score” value was 14 and the “SC Score” value is given as 2.
`CO[C@H]1/C=C\C=C(/C)C(=O)NC2=CC(=O)C(NCCN(C)C)=C(C[C@@H](C)C[C@H](OC)[C@H](O)[C@@H](C)/C=C(\C)[C@@H]1OC(N)=O)C2=O` [Compound A, 17-Dimethylaminoethylamino-17-demethoxygeldanamycin]: under setting [1], the “Total HFA Score” value was 30, the “IP Score” value was 20 and the “SC Score” value was found to be 10. Also, for the setting “HFA”, the “in vivo anti-cancer activity compared with Compound C (in words)” value is given as “significantly greater in vivo anti-cancer activity”.
